Target: T1, C-X-C chemokine receptor type 3 (Homo sapiens, UniProt P49682)
T1 sequence (P49682 whole entry): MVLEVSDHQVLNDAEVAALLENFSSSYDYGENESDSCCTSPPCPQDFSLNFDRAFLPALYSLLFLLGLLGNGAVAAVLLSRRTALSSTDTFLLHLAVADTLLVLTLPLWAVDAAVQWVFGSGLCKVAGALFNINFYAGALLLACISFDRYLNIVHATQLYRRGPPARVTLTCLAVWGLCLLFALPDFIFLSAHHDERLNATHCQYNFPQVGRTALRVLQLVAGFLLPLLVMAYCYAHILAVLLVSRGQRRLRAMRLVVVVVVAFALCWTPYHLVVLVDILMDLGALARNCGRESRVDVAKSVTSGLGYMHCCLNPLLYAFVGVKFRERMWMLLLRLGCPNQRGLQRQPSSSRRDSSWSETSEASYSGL
Test: Receptor Internalization Assay (RIA): Stock solutions of test compounds are made up at a concentration of 10 mM in DMSO, and serially diluted in PBS containing 0.5% BSA to concentrations required for inhibition dose response curves. Diluted compounds are then mixed with an equal volume of CXCL10 (Peprotech) diluted in PBS. Anticoagulated venous human whole blood is added to the mixture, which is then incubated in a CO2 incubator at 37° C. to allow for ligand mediated receptor internalization (final CXCL10 concentration is 9 nM). After 30 min, the blood is mixed with fluorescently labeled CXCR3 and CD4 specific antibodies (Becton Dickinson) and incubated on ice for 10 minutes. Samples are then mixed with BD FACS Lysing Solution (Becton Dickinson) in order to eliminate red blood cells. After washing the cells with PBS containing 0.5% BSA, the samples are then analyzed in a flow cytometer (FACS Canto II, Becton Dickinson). For data analysis using FACSDiva software (Becton Dickinson), the mean fluorescence corresponding to CXCR3 cell surface expression was determined on CD4 positive cells. The calculated IC50 values may fluctuate depending on the daily assay performance. Fluctuations of this kind are known to those skilled in the art. In the case where IC50 values have been determined several times for the same compound, mean values are given.

CC(C)c1ncn(CC(=O)N2C(C)CNCC2c2sc(C(F)(F)F)cc2-c2cnc(C3CC3)nc2)n1 (centres undefined) and Cc1ncn(CC(=O)N2C(C)CNCC2c2sc(C(F)(F)F)cc2-c2cnc(C3CC3)nc2)n1 (centres undefined) are within 1.5-fold of each other in IC50: 524 nM for the first, 462 nM for the second.

Compared with COCc1ncn(CC(=O)N2C(C)CNCC2c2sc(C(F)(F)F)cc2-c2cnc(C3CC3)nc2)n1 (centres undefined), CCc1ncn(CC(=O)N2C(C)CNCC2c2sc(C(F)(F)F)cc2-c2cnc(C3CC3)nc2)n1 (centres undefined) is 7.3-fold lower in IC50: 1390 nM for the first, 190 nM for the second. The second is the more potent here.

CCc1ncn(CC(=O)N2C(C)CNCC2c2sc(C(F)(F)F)cc2-c2cnc(C(F)(F)F)nc2)n1 (centres undefined) and CCCc1ncn(CC(=O)N2C(C)CNCC2c2sc(C(F)(F)F)cc2-c2cnc(C(F)(F)F)nc2)n1 (centres undefined) are within 1.5-fold of each other in IC50: 148 nM for the first, 221 nM for the second.

Going from CC1CNCC(c2sc(C(F)(F)F)cc2-c2cnc(C(F)(F)F)nc2)N1C(=O)Cn1cnc(C(N)=O)n1 (centres undefined) to Cc1ncn(CC(=O)N2C(C)CNCC2c2sc(C(F)(F)F)cc2-c2cnc(C(F)(F)F)nc2)n1 (centres undefined), the IC50 falls from 1710 nM to 189 nM (9-fold).

Going from CC1CNCC(c2sc(C(F)(F)F)cc2-c2cnc(C(F)(F)F)nc2)N1C(=O)Cn1cnc(C(C)(C)C)n1 (centres undefined) to CC1CNCC(c2sc(C(F)(F)F)cc2-c2cnc(C(F)(F)F)nc2)N1C(=O)Cn1cnc(C(C)(C)O)n1 (centres undefined), the IC50 rises from 349 nM to 830 nM (2.4-fold).

CC1CNCC(c2sc(C(F)(F)F)cc2-c2cnc(C(F)(F)F)nc2)N1C(=O)Cn1cnc(CO)n1 (centres undefined) and COCc1ncn(CC(=O)N2C(C)CNCC2c2sc(C(F)(F)F)cc2-c2cnc(C(F)(F)F)nc2)n1 (centres undefined) are within 1.5-fold of each other in IC50: 809 nM for the first, 606 nM for the second.

CC1CNCC(c2sc(C(F)(F)F)cc2-c2cnc(C3CC3)nc2)N1C(=O)Cn1cnc(C(C)(C)C)n1 (centres undefined) and CCOc1ncc(-c2cc(C(F)(F)F)sc2C2CNCC(C)N2C(=O)Cn2cnc(C(C)(C)C)n2)cn1 (centres undefined) are within 1.5-fold of each other in IC50: 679 nM for the first, 552 nM for the second.

First: CCOc1ncc(-c2cc(C(F)(F)F)sc2C2CNCC(C)N2C(=O)Cn2cnc(CC)n2)cn1 (centres undefined)
Second: CCOc1ncc(-c2cc(C(F)(F)F)sc2C2CNCC(C)N2C(=O)Cn2cnc(COC)n2)cn1 (centres undefined)
The IC50 of the first is 4-fold lower: 235 nM for the first, 950 nM for the second. The first is the more potent here.

CCOc1ncc(-c2cc(C(F)(F)F)sc2C2CNCC(C)N2C(=O)Cn2cnc(C)n2)cn1 (centres undefined) and CCOc1ncc(-c2cc(C(F)(F)F)sc2C2CNCC(C)N2C(=O)Cn2cnc(C(C)C)n2)cn1 (centres undefined) are within 1.5-fold of each other in IC50: 211 nM for the first, 299 nM for the second.

Work on CC(C)c1ncn(CC(=O)N2C(C)CNCC2c2sc(C(F)(F)F)cc2-c2cnc(C(F)(F)F)nc2)n1 (centres undefined) yielded an IC50 of 174 nM.

From ChEMBL document CHEMBL5725459, “(R)-2-methyl-piperazine derivatives as CXCR3 receptor modulators” (2018)
